Patent publication US20040038855A1 (priority 1999, published 2004)
Where a name gives a salt, the structure may show the parent alone. Read-outs that look alike come from different tables or passages of the source.

What was measured:
[1] = biological target: T1, human α2A adrenoceptor (Homo sapiens, UniProt P08913); test: Binding affinity at the human α2A adrenergic receptor
T1 construct: expressed in transfected cells
T1 sequence (P08913 1-465): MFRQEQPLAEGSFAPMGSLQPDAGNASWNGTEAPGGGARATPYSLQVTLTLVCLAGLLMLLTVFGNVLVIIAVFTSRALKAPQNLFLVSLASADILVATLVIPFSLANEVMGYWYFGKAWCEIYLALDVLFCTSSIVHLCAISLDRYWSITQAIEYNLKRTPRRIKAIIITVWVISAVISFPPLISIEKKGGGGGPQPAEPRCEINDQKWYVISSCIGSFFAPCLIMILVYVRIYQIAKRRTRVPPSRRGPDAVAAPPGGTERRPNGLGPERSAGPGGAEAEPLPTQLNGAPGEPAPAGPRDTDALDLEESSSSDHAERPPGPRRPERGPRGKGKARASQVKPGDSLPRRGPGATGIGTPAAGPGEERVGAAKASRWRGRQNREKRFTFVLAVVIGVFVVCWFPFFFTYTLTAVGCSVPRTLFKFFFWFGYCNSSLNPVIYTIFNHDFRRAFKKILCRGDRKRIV
From the text: (§1) Other receptors: Cell membranes expressing human dopamine D1, D2, D4 and rat D3 receptors were purchased through BioSignal, Inc. (Montreal, Canada). Binding assays using the histamine H1 receptor; dopamine receptors; and α1A, α1B, and α2 adrenergic receptors may be carried out according to the procedures described in U.S. Pat. No. 5,780,485, the disclosure of which is hereby incorporated by reference in its entirety into this application. Binding assays using the dopamine D5 receptor may be carried out according to the procedures described in U.S. Pat. No. 5,882,855, the disclosure of which is hereby incorporated by reference in its entirety into this application. Binding assays for the human α1D adrenergic receptor may be carried out according to the procedures described in U.S. Pat. No. 6,156,518, the disclosure of which is hereby incorporated by reference in its entirety into this application.

[2] = biological target: T2, human α2B adrenoceptor (Homo sapiens, UniProt P18089); test: Binding affinity at the human α2B adrenergic receptor
T2 construct: expressed in transfected cells
T2 sequence (P18089 1-450): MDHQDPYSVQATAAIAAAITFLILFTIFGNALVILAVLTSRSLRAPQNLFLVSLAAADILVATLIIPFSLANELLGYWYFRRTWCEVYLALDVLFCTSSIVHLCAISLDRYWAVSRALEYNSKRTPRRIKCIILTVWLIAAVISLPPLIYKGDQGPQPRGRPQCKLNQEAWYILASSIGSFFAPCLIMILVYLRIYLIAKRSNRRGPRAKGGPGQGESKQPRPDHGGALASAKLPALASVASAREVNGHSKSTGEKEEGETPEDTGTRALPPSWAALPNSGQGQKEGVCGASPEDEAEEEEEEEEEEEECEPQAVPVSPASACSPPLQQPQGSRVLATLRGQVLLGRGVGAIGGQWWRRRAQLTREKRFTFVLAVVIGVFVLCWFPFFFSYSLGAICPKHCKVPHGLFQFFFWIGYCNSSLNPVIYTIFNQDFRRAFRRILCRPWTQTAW
From the text: as §1

[3] = biological target: T3, human Dopamine D2 receptor (Homo sapiens, UniProt P14416); test: Binding affinity at the human dopamine D2 receptor; conditions: Table 3d; * = >50000; read-out: hD2 Ki
T3 construct: purchased BioSignal, Inc. (Montreal, Canada)
In short: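 Membrane-based binding format. For D1 and D2, membranes came from cells expressing the human receptor; the α2A and D5 binding assays are described only as standard receptor-binding procedures.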

[4] = biological target: T4, human dopamine D5 receptor (Homo sapiens, UniProt P21918); test: Binding affinity at the human dopamine D5 receptor; conditions: Table 3d; read-out: hD5 Ki
T4 construct: expressed in transfected cells
From the text: as §1

[5] = biological target: T5, human dopamine D1 receptor (Homo sapiens, UniProt P21728); test: Binding affinity at the human dopamine D1 receptor; conditions: Table 3d; read-out: hD1 Ki
T5 construct: purchased BioSignal, Inc. (Montreal, Canada)
From the text: as §1

[6] = biological target: T6, human 5HT2A receptor (Homo sapiens, UniProt P28223); test: Binding affinity at the human 5HT2A receptor ([3H]ketanserin); conditions: Table 3e; read-out: h5HT2A Ki
T6 construct: expressed in transfected cells; host or cells: COS7 cells, transient, DEAE dextran, vector pCEXV3
Method: Human 5HT2A Receptor: The coding sequence of the human 5HT2A receptor was obtained from a human brain cortex cDNA library, and cloned into the cloning site of pCEXV3 eukaryotic expression vector. This construct was transfected into COS7 cells by the DEAE dextran method (Cullen, 1987). Cells were harvested after 72 hours and lysed by sonication in 5 mM Tris HCl, 5 mM EDTA, pH 7.5. The cell lysates were subjected to centrifugation at 1000 rpm for 5 minutes at 4° C., and the supernatant was subjected to centrifugation at 30,000×g for 20 minutes at 4° C. The pellet was suspended in 50 mM Tris HCl buffer (pH 7.7 at room temperature) containing 10 mM MgSO4, 0.5 mM EDTA, and 0.1% ascorbate. […] Nonspecific binding was defined by the addition of 10 μM mianserin. The bound radioligand was separated by filtration through GF/B filters using a cell harvester.

[7] = biological target: rat D3 receptor (Rattus norvegicus, UniProt P19020); test: Binding affinity at the rat dopamine D3 receptor; conditions: Table 3d; read-out: rD3 Ki
From the text: as §1

[8] = biological target: T7, human dopamine D4 receptor (Homo sapiens, UniProt P21917); test: Binding affinity at the human dopamine D4 receptor; conditions: Table 3d; * = >50000; read-out: hD4 Ki
T7 construct: purchased BioSignal, Inc. (Montreal, Canada)
From the text: as §1

[9] = test system: micturition reflex, anesthetized female Sprague Dawley rats; test: Distension-induced rhythmic contraction (DIRC) model; format: in vivo, rat; parameters: key: A = Produced a significant increase in contraction interval relative to pre-drug interval; conditions: contraction interval, i.v. or i.p.
Method: The effects of compounds on the micturition reflex were assessed in the “distension-induced rhythmic contraction” (DIRC), as described in previous publications (e.g. Maggi et al, 1987; Morikawa et al, 1992), and Continuous Slow Transvesicular Infusion (CSTI) models in rats.
Female Sprague Dawley rats weighing approximately 300 g were anesthetized with subcutaneous urethane (1.2 g/kg). The trachea was cannulated with PE240 tubing to provide a clear airway throughout the experiment. A midline abdominal incision was made and the left and right ureters were isolated. The ureters were ligated distally (to prevent escape of fluids from the bladder) and cannulated proximally with PE10 tubing. The incision was closed using 4-0 silk sutures, leaving the PE10 lines routed to the exterior for the elimination of urine. The bladder was canulated via the transurethral route using PE50 tubing inserted 2.5 cm beyond the urethral opening. This cannula was secured to the tail using tape and connected to a pressure transducer. To prevent leakage from the bladder, the cannula was tied tightly to the exterior urethral opening using 4-0 silk.
To initiate the micturition reflex, the bladder was first emptied by applying pressure to the lower abdomen, and then filled with normal saline in […] (maximum 2 ml) until spontaneous bladder contractions occurred (typically 20-40 mmHg at a rate of one contraction every 2 to 3 minutes. Once a regular rhythm was established, vehicle (saline) or Test Compounds were administered i.v. or i.p. to explore their effects on bladder activity. The 5-HT1A antagonist WAY-100635 was given as a positive control. Data were expressed as contraction interval (in seconds) before drug application (basal), or after the application of vehicle or test article.

rat D3 receptor, sequence (P19020 whole entry): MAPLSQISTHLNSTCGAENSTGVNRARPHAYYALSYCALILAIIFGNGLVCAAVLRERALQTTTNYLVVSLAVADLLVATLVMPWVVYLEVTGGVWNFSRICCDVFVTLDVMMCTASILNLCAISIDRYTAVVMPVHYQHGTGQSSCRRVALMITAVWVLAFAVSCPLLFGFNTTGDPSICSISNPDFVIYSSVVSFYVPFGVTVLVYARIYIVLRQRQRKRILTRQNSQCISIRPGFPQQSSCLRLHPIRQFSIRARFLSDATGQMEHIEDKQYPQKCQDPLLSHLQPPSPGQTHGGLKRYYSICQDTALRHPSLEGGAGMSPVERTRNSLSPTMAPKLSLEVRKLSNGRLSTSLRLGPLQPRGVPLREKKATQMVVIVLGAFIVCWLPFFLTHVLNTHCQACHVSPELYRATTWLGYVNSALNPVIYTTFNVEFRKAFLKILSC
T3 sequence (P14416 whole entry): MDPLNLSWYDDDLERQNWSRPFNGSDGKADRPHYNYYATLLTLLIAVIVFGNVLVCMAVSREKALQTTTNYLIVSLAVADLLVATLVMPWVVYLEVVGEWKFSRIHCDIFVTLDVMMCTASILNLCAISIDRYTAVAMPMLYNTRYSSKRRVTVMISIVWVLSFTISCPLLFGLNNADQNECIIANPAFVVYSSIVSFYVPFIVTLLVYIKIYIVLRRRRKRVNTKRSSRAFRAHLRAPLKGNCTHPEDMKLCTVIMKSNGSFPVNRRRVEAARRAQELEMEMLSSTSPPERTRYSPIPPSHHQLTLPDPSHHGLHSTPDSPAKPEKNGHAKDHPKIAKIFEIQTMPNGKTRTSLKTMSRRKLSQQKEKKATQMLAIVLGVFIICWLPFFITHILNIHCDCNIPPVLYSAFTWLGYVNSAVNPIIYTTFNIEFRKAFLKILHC
T6 sequence (P28223 whole entry): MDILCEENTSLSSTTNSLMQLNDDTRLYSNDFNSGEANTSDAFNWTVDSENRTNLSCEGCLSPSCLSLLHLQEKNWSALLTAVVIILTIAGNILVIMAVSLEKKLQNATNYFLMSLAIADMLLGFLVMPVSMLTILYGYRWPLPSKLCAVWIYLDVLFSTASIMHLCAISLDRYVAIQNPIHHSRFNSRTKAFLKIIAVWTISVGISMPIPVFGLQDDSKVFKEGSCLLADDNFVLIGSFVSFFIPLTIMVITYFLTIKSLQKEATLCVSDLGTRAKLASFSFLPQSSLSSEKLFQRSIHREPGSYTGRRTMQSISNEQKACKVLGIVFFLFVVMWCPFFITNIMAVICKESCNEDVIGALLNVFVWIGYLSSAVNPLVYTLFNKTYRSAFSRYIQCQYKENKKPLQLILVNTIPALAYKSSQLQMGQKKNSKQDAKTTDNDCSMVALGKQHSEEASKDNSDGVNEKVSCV
T5 sequence (P21728 whole entry): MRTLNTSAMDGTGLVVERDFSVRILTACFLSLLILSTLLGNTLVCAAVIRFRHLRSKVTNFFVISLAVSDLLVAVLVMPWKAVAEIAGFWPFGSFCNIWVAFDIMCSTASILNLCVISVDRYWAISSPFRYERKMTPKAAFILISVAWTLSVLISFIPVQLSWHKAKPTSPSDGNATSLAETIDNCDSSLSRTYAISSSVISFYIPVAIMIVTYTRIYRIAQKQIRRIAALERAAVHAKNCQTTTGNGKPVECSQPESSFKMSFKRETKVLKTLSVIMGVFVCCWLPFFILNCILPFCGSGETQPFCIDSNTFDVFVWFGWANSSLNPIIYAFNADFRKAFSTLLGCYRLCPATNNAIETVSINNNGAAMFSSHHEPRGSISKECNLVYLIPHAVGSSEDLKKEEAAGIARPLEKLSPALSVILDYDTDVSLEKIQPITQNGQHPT
T4 sequence (P21918 whole entry): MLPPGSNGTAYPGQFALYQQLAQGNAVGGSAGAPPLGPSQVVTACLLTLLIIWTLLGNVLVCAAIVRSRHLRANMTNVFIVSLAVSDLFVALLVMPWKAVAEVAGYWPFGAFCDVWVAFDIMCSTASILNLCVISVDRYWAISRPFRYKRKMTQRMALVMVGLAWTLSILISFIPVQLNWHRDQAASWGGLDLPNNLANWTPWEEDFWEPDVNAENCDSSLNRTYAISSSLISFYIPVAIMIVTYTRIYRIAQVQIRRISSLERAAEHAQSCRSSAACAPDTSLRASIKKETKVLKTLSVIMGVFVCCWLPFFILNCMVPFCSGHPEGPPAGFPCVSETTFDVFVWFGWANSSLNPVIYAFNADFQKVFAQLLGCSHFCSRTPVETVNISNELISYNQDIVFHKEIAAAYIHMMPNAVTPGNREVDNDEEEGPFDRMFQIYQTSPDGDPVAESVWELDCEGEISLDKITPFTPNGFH
T7 sequence (P21917 whole entry): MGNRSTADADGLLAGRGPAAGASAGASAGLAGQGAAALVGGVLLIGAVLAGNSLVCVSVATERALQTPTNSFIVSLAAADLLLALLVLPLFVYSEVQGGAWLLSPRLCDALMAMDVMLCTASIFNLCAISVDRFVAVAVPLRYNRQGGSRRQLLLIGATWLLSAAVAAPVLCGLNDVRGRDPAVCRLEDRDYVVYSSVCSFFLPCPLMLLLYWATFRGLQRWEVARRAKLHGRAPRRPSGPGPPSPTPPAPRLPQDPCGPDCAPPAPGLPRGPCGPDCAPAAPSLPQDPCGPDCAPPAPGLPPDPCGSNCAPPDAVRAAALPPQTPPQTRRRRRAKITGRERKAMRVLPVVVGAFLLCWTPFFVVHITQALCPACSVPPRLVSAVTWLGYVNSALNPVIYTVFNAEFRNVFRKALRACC

Row | Compound | Ki ([1]; Table 3d, read-out: hα2A Ki) | Ki ([2]; Table 3d, read-out: hα2B Ki) | Ki [1] | Ki [2] | Ki [3] | Ki [4] | Ki [5] | Ki [6] | Ki [7] | Ki [8] | Effect of MCH1 antagonist in the DIRC model [9]
1 | 2-(3,4-DIFLUOROPHENYL)4,5-DIHYDROIMIDAZOLE-1-CARBOXYLIC ACID {3-[4-PHENYL-4-(4-BROMO-5-METHYLTHIOPNEN-2-YL)]-PROPYL}-AMIDE [Example 19] | 285 nM | 349 nM | – | – | – | – | – | – | – | – | –
2 | COC(=O)C1=C(C)NC(=O)N(C(=O)NCCCN2CCC3(CC2)OCc2ccccc23)C1c1ccc2nonc2c1 (single isomer, unassigned) [Example 18, HYDROCHLORIDE] | – | – | 57 nM | 74 nM | 624 nM | 2540 nM | 596 nM | 1570 nM | 1220 nM | – | –
3 | COCC1=C(C(=O)OC)[C@H](c2ccc(F)c(F)c2)N(C(=O)NCCCN2CCC(c3cccc(NC(C)=O)c3)CC2)C(=O)N1 [Example 10, (+)-1,2,3,6-TETRAHYDRO-1-{N-[4-(3,-ACETAMIDO)-PHENYLPIPERIDIN-1-YL]PROPYL}CARBOXAMIDO-4-METHOXYMETHYL-6-(3,4-DIFLUORO-PHENYL)-2-OXOPYRIMIDINE-5-CARBOXYLIC ACID METHYL ESTER] | – | – | – | – | > 50000 nM | 773 nM | 1930 nM | – | 5890 nM | > 50000 nM | A
4 | COC(=O)C1=C(C)NC(=O)N(C(=O)NCCCN2CCC3(CC2)OCc2ccccc23)C1c1ccc(F)c(F)c1 (stereo not drawn) [Example 20, 4-(3,4-DIFLUORPHENYL)-6-METHYL-2-OXO-3-{[3-(4-SPIRO[ISOBENZOFURAN-1(3H),4′-PIPERIDINE]PROPYL}-1,2,3,4-TETRAHYDROPYRIMIDINE-5-CARBOXYLIC ACID METHYL ESTER] | – | – | 99 nM | 97 nM | – | – | – | 2820 nM | – | – | –
